Experimental data: ChEMBL document CHEMBL1122478, “Tricyclic triarylethylene antiestrogens: dibenz[b,f]oxepins, dibenzo[b,f]thiepins, dibenzo[a,e]cyclooctenes, and dibenzo[b,f]thiocins” (1983)

Legend:
Format in all cases: functional
Mus musculus [1] = test: Sedative activity measured after ip administration to female mice and checked for their horizontal movement at a dose of 1 mg/Kg
Mus musculus [2] = test: Sedative activity measured after ip administration to female mice and checked for their horizontal movement at a dose of 5 mg/Kg
Rattus norvegicus [3] = organism: Rattus norvegicus; test: Dose prevented implantation in two out of 3 rats
Mus musculus [4] = test: Sedative activity measured after ip administration to female mice and checked for their horizontal movement at a dose of 10 mg/Kg
Rattus norvegicus [5] = organism: Rattus norvegicus; test: Minimum fully effective dose that prevented implantation of eggs in three out of three rats (MFED) (antifertility)
Rattus norvegicus [6] = organism: Rattus norvegicus; test: Dose prevented implantation in two out of three rats
Rattus norvegicus [7] = organism: Rattus norvegicus; test: Dose prevented implantation in two out of 3 rats;

CCC1=C(c2ccccc2)c2ccc(OCC(O)CO)cc2Sc2ccccc21 (centres undefined)
Reduction in movement (Mus musculus [1]): 33% | Reduction in movement (Mus musculus [2]): 84% | Dose (Rattus norvegicus [3]): ~25 mg/kg

CCC1=C(c2ccccc2)c2ccc(OCCN(C)C)cc2Sc2ccccc21
Reduction in movement (Mus musculus [1]): 49% | Reduction in movement (Mus musculus [4]): 46% | MFED (Rattus norvegicus [5]): 5 mg/kg | Dose (Rattus norvegicus [3]): ~1 mg/kg

CCC1=C(c2ccccc2)c2ccc(OCCN(C)C)cc2Oc2ccccc21
MFED (Rattus norvegicus [5]): 25 mg/kg | Dose (Rattus norvegicus [6]): ~10 mg/kg

CCC1=C(c2ccccc2)c2ccc(O)cc2Sc2ccccc21
Reduction in movement (Mus musculus [1]): 34% | Reduction in movement (Mus musculus [4]): 72% | Reduction in movement (Mus musculus [2]): 60% | MFED (Rattus norvegicus [5]): >5 mg/kg

CCC1=C(c2ccc(O)cc2)c2ccc(OCC(O)CO)cc2Oc2ccccc21 (centres undefined)
Reduction in movement (Mus musculus [2]): 61% | MFED (Rattus norvegicus [5]): 25 mg/kg | Dose (Rattus norvegicus [3]): 10 mg/kg

CC/C(=C(\c1ccccc1)c1ccc(OCCN(C)C)cc1)c1ccccc1 [TAMOXIFEN]
MFED (Rattus norvegicus [5]): 0.1 mg/kg

C=CCOc1ccc2c(c1)SCc1ccccc1/C(CC)=C\2c1ccc(O)cc1
MFED (Rattus norvegicus [5]): 25 mg/kg | Dose (Rattus norvegicus [3]): ~10 mg/kg

CC/C1=C(\c2ccc(O)cc2)c2ccc(OCCN(C)C)cc2SCc2ccccc21
Reduction in movement (Mus musculus [2]): 61% | MFED (Rattus norvegicus [5]): 0.5 mg/kg

C=CCOc1ccc2c(c1)Oc1ccccc1C(CC)=C2c1ccc(O)cc1
MFED (Rattus norvegicus [5]): >25 mg/kg

CN(C)CCCN1c2ccccc2Sc2ccc(Cl)cc21 [CHLORPROMAZINE]
Reduction in movement (Mus musculus [1]): 73%

C=CCOc1ccc2c(c1)Oc1ccccc1C(CC)=C2c1ccccc1
MFED (Rattus norvegicus [5]): >25 mg/kg

CCC1=C(c2ccc(O)cc2)c2ccc(OCC(O)CO)cc2Sc2ccccc21 (centres undefined)
MFED (Rattus norvegicus [5]): 5 mg/kg

CC/C1=C(\c2ccccc2)c2ccc(OCCN(C)C)cc2SCc2ccccc21
MFED (Rattus norvegicus [5]): 0.5 mg/kg

C=CCOc1ccc2c(c1)Sc1ccccc1C(CC)=C2c1ccccc1
Reduction in movement (Mus musculus [1]): 48% | Reduction in movement (Mus musculus [2]): 76% | MFED (Rattus norvegicus [5]): >25 mg/kg

CC/C1=C(\c2ccc(O)cc2)c2ccc(OCC(O)CO)cc2SCc2ccccc21 (centres undefined)
Reduction in movement (Mus musculus [2]): 62% | MFED (Rattus norvegicus [5]): 5 mg/kg

CCC1=C(c2ccccc2)c2ccc(OCC(O)CO)cc2Oc2ccccc21 (centres undefined)
MFED (Rattus norvegicus [5]): 10 mg/kg

CCC1=C(c2ccc(O)cc2)c2ccc(OCCN(C)C)cc2Sc2ccccc21
Reduction in movement (Mus musculus [4]): 45% | MFED (Rattus norvegicus [5]): 0.5 mg/kg

C=CCOc1ccc2c(c1)Sc1ccccc1C(CC)=C2c1ccc(O)cc1
MFED (Rattus norvegicus [5]): 5 mg/kg

C=CCOc1ccc2c(c1)SCc1ccccc1/C(CC)=C\2c1ccccc1
MFED (Rattus norvegicus [5]): 5 mg/kg

CCC1=C(c2ccc(O)cc2)c2ccc(OCCN(C)C)cc2Oc2ccccc21
Reduction in movement (Mus musculus [2]): 70% | MFED (Rattus norvegicus [5]): 10 mg/kg

CC/C1=C(\c2ccccc2)c2ccc(OCC(O)CO)cc2SCc2ccccc21 (centres undefined)
Dose (Rattus norvegicus [7]): 5 mg/kg
